This note sets out measurements from patent publication US4794187A, “^35 S-labelled 1.4-dihydropyridines” (Bayer Aktiengesellschaft, priority 1986, dated 1988).

The subject of assay [1] is brain receptor. Description: binding to the brain 1,4-dihydropyridine receptor (radioligand dissociation). Conditions: 37° C.
The target of assay [2] is T1, skeletal muscle receptor (Homo sapiens, UniProt Q13698).
T1 construct: dissociation rate constant (at 37° C.) of 0.070±0.01 min^-1 on skeletal muscle; from tissue
T1 sequence (Q13698 whole entry): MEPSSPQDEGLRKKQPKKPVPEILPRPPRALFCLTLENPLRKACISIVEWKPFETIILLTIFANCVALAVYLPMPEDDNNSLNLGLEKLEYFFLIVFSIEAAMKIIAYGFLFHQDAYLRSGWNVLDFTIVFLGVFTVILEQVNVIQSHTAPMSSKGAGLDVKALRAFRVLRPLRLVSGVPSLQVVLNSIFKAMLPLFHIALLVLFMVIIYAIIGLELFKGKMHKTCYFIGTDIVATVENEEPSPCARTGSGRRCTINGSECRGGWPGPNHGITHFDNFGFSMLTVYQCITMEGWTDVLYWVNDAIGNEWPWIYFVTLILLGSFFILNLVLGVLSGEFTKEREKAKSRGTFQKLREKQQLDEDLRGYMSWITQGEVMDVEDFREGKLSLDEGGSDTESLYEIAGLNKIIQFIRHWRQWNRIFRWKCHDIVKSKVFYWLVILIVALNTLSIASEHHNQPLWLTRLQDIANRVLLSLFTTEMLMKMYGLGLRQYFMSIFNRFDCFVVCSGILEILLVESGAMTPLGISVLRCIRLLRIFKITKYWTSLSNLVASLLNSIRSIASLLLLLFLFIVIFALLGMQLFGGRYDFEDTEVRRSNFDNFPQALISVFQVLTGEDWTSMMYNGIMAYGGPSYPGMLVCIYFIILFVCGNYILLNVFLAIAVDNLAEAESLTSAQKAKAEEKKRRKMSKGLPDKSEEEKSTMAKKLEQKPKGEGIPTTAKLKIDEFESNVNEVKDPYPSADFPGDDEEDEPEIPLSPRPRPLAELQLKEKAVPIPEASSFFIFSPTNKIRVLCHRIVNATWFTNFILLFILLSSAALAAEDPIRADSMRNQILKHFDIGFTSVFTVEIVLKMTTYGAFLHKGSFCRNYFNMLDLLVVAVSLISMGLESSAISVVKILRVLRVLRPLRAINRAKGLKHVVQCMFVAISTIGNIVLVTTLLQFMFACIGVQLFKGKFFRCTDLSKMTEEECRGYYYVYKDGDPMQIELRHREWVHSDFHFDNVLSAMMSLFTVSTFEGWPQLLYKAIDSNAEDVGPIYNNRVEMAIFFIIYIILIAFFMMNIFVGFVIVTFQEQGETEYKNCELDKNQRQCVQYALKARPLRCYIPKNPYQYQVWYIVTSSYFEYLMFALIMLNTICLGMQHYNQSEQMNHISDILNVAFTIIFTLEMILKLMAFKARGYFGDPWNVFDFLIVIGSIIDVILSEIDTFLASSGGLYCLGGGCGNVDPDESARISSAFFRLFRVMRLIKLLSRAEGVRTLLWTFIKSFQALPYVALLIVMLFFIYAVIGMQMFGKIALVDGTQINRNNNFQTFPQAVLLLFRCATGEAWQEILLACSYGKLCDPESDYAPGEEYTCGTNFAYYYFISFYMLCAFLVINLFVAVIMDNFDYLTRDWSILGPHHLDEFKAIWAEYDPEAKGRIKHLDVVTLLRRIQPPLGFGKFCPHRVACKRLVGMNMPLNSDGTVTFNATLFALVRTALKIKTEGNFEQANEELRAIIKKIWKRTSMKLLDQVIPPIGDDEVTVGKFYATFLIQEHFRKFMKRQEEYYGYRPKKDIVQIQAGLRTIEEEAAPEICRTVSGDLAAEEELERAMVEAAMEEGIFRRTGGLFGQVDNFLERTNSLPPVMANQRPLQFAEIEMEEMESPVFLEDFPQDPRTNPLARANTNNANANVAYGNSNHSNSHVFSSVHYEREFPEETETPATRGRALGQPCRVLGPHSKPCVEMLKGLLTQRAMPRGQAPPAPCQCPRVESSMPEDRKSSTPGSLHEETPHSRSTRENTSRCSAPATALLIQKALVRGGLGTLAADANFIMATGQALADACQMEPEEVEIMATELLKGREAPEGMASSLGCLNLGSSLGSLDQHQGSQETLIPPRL
T1 sequence (P54289 25-957 partner limits assumed): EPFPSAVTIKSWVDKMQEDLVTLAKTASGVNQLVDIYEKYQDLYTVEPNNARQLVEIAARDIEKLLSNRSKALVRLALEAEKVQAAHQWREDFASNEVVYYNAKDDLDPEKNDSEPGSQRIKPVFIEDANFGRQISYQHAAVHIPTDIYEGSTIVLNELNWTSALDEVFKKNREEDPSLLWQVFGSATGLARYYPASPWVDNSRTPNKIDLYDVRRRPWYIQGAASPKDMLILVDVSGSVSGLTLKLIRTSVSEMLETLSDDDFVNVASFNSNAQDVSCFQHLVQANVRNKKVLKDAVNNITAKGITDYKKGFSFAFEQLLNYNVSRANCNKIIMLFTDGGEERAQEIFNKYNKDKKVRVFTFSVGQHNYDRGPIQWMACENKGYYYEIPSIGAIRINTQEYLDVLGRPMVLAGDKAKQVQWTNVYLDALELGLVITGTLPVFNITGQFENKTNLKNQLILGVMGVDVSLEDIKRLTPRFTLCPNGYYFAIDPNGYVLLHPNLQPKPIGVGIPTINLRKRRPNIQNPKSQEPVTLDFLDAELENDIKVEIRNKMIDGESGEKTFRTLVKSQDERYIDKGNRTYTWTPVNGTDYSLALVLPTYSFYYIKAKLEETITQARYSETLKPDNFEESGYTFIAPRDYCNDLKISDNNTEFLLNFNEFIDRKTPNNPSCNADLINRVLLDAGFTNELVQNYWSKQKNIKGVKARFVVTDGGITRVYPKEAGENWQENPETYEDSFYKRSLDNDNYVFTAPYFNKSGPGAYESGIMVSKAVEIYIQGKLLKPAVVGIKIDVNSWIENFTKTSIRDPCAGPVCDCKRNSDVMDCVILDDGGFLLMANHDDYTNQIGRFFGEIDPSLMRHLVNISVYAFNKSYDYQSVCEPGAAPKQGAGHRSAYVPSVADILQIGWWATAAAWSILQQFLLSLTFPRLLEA
T1 sequence (P54289 958-1103 partner limits assumed): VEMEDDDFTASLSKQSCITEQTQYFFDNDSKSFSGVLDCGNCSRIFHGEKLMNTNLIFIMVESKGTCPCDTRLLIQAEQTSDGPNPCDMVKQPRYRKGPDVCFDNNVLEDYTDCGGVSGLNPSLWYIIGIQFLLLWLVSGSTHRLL
T1 sequence (Q02641 whole entry partner): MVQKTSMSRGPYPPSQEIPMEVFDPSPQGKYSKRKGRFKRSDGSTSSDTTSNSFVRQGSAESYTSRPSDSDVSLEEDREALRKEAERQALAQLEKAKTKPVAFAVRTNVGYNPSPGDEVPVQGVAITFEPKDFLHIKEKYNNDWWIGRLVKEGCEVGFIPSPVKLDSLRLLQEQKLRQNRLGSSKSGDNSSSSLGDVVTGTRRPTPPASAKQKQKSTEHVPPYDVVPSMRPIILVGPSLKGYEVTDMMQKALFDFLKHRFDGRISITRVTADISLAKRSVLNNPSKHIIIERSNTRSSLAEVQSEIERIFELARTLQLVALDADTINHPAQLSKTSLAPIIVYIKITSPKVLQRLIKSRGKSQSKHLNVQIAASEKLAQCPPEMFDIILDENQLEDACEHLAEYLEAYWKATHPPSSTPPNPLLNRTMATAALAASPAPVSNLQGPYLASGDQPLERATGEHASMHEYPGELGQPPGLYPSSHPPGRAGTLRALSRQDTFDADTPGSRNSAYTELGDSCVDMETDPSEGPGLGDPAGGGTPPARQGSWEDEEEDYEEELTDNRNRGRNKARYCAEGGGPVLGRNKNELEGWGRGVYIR
T1 sequence (Q06432 whole entry partner): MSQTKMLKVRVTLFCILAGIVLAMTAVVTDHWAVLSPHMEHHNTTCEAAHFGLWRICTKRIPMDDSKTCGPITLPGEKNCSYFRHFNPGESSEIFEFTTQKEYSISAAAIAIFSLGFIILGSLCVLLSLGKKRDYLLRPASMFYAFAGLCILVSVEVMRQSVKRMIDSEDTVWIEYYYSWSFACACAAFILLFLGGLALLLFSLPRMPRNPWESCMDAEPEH
Description: binding to the skeletal muscle 1,4-dihydropyridine receptor (radioligand dissociation). The note with it: 37° C., read-out: dissociation rate constant (converted).

Regarding `CCOC(=O)C1=C(C)NC(C)=C(C(=O)OCCNC(=O)[C@H](CC[35S]C)NC(=O)OC(C)(C)C)C1c1ccccc1C(F)(F)F` (some centres unmarked) [Example 1], in assay [1], the dissociation rate constant was determined as 0.02 min⁻¹. Also, in assay [2], the koff is 0.00117 s⁻¹.
